Measured values taken from paper PMC4698308, “A new amino acid substitution (Ala-205-Phe) in acetolactate synthase (ALS) confers broad spectrum resistance to ALS-inhibiting herbicides” (Planta, 2015).

Columns and labels:
[1] = system: annual bluegrass (Poa annua L.); assay: Whole plant non-target site resistance experiment, foramsulfuron vs sulfometuron (control and plant height 28 days after treatment); assay type: in vivo
Protocol: A second experiment was conducted to determine if non-target mechanisms could confer resistance to ALS inhibiting herbicides in our annual bluegrass population, POAAN-R3. ALS-resistant (RP1–RP8) and susceptible (S) plants were cultured in plastic conical containers under previously described glasshouse conditions for 28 days before being treated with foramsulfuron (29 g ha^−1) or sulfometuron-methyl (Oust XP; Dupont Professional Products. Wilmington, DE, USA) at 105 g ai ha^−1. Sulfometuron-methyl is an ALS inhibiting herbicide not metabolized by cytochrome P450 monooxygenases; therefore, it can be used to discern if weed populations survive ALS inhibiting herbicide treatment via target- or non-target site based mechanisms (Christopher et al. [1992]). Per label recommendations, sulfometuron-methyl included non-ionic surfactant at 0.25 % v/v. Treatments were mixed in water carrier applied in an enclosed spray chamber, as previously described, on 13 March 2015.
Annual bluegrass control was visually assessed on a 0 (i.e., no control) to 100 % (i.e., complete kill) scale relative to the non-treated 28 days after treatment. After all control data had been collected, plant height data were collected using a ruler placed at the soil surface of each plastic conical container and recording the distance to the tip of the bud leaf. Treatments were arranged as a 9 × 3 factorial with nine plant selections (RP1–RP8, S) and three herbicides (foramsulfuron, sulfometuron-methyl, non-treated) in a completely randomized design with four replications and repeated in separate glasshouses during March 2015.

[2] = system: ALS in POAAN-R3 and susceptible annual bluegrass plants; parameters: method as in Brosnan et al. [2015]; conditions: increasing concentrations from 0 to 100 μM; ref Brosnan et al. [2015]; cited from earlier work
[3] = system: recombinant Arabidopsis thaliana ALS variant W574L; assay type: biochemical; conditions: IC50 mutant divided by IC50 sensitive ALS; max inhibitor concentration 1.00 × 10^−04 M
Method in brief: (§1)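 His-tagged enzymes lacking the 85-residue N-terminal transit peptide, expressed and purified. Herbicides in DMSO added; reaction 60 min at 30 °C, stopped with H2SO4, acetolactate converted to acetoin at 56 °C for 15 min.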

[4] = system: recombinant Arabidopsis thaliana ALS variant A205V; assay type: biochemical; conditions: IC50 mutant divided by IC50 sensitive ALS; max inhibitor concentration 1.00 × 10^−04 M
Method in brief: as §1

[5] = system: recombinant Arabidopsis thaliana ALS variant A205F; assay type: biochemical; conditions: IC50 mutant divided by IC50 sensitive ALS; max inhibitor concentration 1.00 × 10^−04 M
Method in brief: as §1

[6] = target: T1, recombinant Arabidopsis thaliana ALS wild-type enzyme (WT—sensitive) (Arabidopsis thaliana, UniProt P17597); assay: biochemical
T1 construct: Protein constructs contained an 85 amino acid N-terminal deletion (chloroplast transit peptide); Hexa-histidine tag (N); made in house
Method in brief: as §1

T1 sequence (P17597 86-670): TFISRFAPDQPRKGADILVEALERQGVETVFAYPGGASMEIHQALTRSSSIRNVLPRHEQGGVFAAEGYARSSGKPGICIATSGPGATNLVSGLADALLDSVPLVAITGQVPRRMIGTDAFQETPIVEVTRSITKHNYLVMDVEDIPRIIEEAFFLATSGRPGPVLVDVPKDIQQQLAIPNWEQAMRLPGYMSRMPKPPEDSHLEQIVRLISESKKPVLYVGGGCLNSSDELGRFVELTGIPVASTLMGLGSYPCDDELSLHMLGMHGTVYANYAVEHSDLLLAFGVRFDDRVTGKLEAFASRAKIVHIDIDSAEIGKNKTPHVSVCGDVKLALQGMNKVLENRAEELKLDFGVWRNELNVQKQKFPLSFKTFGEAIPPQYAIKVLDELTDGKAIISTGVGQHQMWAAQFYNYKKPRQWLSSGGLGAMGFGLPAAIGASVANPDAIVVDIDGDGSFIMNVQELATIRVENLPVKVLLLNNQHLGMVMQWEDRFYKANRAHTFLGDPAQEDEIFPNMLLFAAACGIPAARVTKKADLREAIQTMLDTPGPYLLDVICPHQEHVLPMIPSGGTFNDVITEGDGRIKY

COc1cc(OC)nc(NC(=O)NS(=O)(=O)c2cc(NC=O)ccc2C(=O)N(C)C)n1 [Foramsulfuron]
Annual bluegrass control RP1 ([1]; RP1, 28 days after treatment, minimum of two tillers, foramsulfuron 29, sulfometuron 105 g ha^−1): 8% | Annual bluegrass height RP1 ([1]; RP1, plant height 28 days after treatment, foramsulfuron 29, sulfometuron 105 g ha^-1, non-treated 118 mm): 77 mm | Annual bluegrass control RP2 ([1]; RP2, 28 days after treatment, minimum of two tillers, foramsulfuron 29, sulfometuron 105 g ha^−1): 2% | Annual bluegrass height RP2 ([1]; RP2, plant height 28 days after treatment, foramsulfuron 29, sulfometuron 105 g ha^-1, non-treated 129 mm): 74 mm | Annual bluegrass control RP3 ([1]; RP3, 28 days after treatment, minimum of two tillers, foramsulfuron 29, sulfometuron 105 g ha^−1): 5% | Annual bluegrass height RP3 ([1]; RP3, plant height 28 days after treatment, foramsulfuron 29, sulfometuron 105 g ha^-1, non-treated 173 mm): 100 mm | Annual bluegrass control RP4 ([1]; RP4, 28 days after treatment, minimum of two tillers, foramsulfuron 29, sulfometuron 105 g ha^−1): 11% | Annual bluegrass height RP4 ([1]; RP4, plant height 28 days after treatment, foramsulfuron 29, sulfometuron 105 g ha^-1, non-treated 140 mm): 85 mm | Annual bluegrass control RP5 ([1]; RP5, 28 days after treatment, minimum of two tillers, foramsulfuron 29, sulfometuron 105 g ha^−1): 8% | Annual bluegrass height RP5 ([1]; RP5, plant height 28 days after treatment, foramsulfuron 29, sulfometuron 105 g ha^-1, non-treated 114 mm): 75 mm | Annual bluegrass control RP6 ([1]; RP6, 28 days after treatment, minimum of two tillers, foramsulfuron 29, sulfometuron 105 g ha^−1): 46% | Annual bluegrass height RP6 ([1]; RP6, plant height 28 days after treatment, foramsulfuron 29, sulfometuron 105 g ha^-1, non-treated 106 mm): 68 mm | Annual bluegrass control RP7 ([1]; RP7, 28 days after treatment, minimum of two tillers, foramsulfuron 29, sulfometuron 105 g ha^−1): 5% | Annual bluegrass height RP7 ([1]; RP7, plant height 28 days after treatment, foramsulfuron 29, sulfometuron 105 g ha^-1, non-treated 125 mm): 75 mm | Annual bluegrass control RP8 ([1]; RP8, 28 days after treatment, minimum of two tillers, foramsulfuron 29, sulfometuron 105 g ha^−1): 3% | Annual bluegrass height RP8 ([1]; RP8, plant height 28 days after treatment, foramsulfuron 29, sulfometuron 105 g ha^-1, non-treated 132 mm): 94 mm | Annual bluegrass control S ([1]; susceptible (S), 28 days after treatment, minimum of two tillers, foramsulfuron 29, sulfometuron 105 g ha^−1): 93% | Annual bluegrass height S ([1]; susceptible (S), plant height 28 days after treatment, foramsulfuron 29, sulfometuron 105 g ha^-1, non-treated 111 mm): 18 mm | differences in the in vitro activity of ALS in POAAN-R3 and susceptible plants [2]: no differences | Resistance factor W574L [3]: 2013 | Resistance factor A205V [4]: 12 | Resistance factor A205F [5]: 5160 | IC50 [6]: 7.5 nM
